Source: patent publication US11525165B2, “Method of selection of an IRE1-inhibitor therapy for patient suffering from cancer” (INSERM (INSTITUT NATIONAL DE LA SANTÉ ET DE LA RECHERCHE …, priority 2017, dated 2022)

Tested on: U87 cells
Experiment: miR-17 level under tunicamycin-induced ER stress
Type: cell-based
Conditions: data not shown
Description: U87MG (ATCC) and U251MG (Sigma, St Louis, Mo., USA) cells were authenticated as recommended by AACR (http://aacrjournals.org/content/cell-line-authentication-information) and tested for the absence of mycoplasma using MycoAlert® (Lonza, Basel, Switzerland) or MycoFluor (Invitrogen, Carlsbad, Calif., USA). U87 cells (ATCC) were grown in DMEM glutamax (Invitrogen, Carlsbad, Calif., USA) supplemented with 10% FBS. U87 were stably transfected at MOI=0.3 with pCDH-CMV-MCS-EF1-Puro-copGFP (System biosciences) empty vector (EV), pCDH-CMV-MCS-EF1-Puro-copGFP containing IRE1alpha wild-type sequence (WT) or mutated sequence (P336L, A414T, S769F or Q780*). U87 cells were selected using 2 μg/mL puromycin and polyclonal populations were tested for GFP expression. Transfections of GBM primary cell lines with IRE1 WT and Q780* were performed using Lipofectamine LTX (ThermoFisher Scientific), according to the manufacturer's instructions. For microarray experiments, tunicamycin (purchased from Calbiochem (Merck KGaA, Darmstadt, Germany)) was used at […] for 16 hrs. Actinomycin D were purchased from Sigma-Aldrich (St Louis, Mo., USA) and used as indicated. […]
Total RNA was prepared using the Trizol reagent (Invitrogen, Carlsbad, Calif., USA). Semi-quantitative analyses were carried out as previously described. […]

tunicamycin
miR-17 degradation: led to further miR-17 degradation
